From PMC3276110 (ACS Medicinal Chemistry Letters, 2011) come the findings set out here.

Bounds are passed on as bounds.

The subject of this test is multidrug-resistant Dd2 P. falciparum parasites. The test is described as follows: growth inhibition assay. Type of test: cell-based. The conditions noted are these: Plasmodium falciparum, DD2, 72 h, read-out: Dd2 GI50, Dd2 intraerythrocytic parasites, 72 h, DAPI.

The term GI50 denotes the concentration giving 50% growth inhibition.

On to `C[C@@H]1CN([C@@H](C)CO)C(=O)c2cc(NC(=O)Nc3ccccc3)ccc2O[C@@H](C)CCCCO[C@H]1CN(C)C(=O)OC(C)(C)C` [Compound 17], for which the GI50 was > 1400 nM.

As for `C[C@@H]1CN(CCO)C(=O)c2cc(NC(=O)Nc3ccccc3)ccc2O[C@@H](C)CCCCO[C@H]1CN(C)S(=O)(=O)c1ccc(F)cc1` [Compound 30], the GI50 amounted to 630 nM.
